Test systems include SK-MEL-5; CAKI-1; SF-268; RXF 393; NCI-H522; MCF7; SK-MEL-28; RPMI-8226; OVCAR-4; NCI-H460; MDA-MB-435; U-251; UACC-62; EKVX; KM12; Hs-578T; TK-10; HCT-15; ACHN; HOP-92.
Test in all cases: NCI-60 cell line screen, 48 h

These results are taken from ChEMBL document CHEMBL1201862, “PubChem BioAssay data set” (2004).

Counter-ions that a name gives are not always drawn.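 Briefly, cells in 96-well plates were exposed to five compound concentrations for 48 h, and endpoints were estimated by linear interpolation. GI50 is the concentration that inhibits growth by half.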 Calls of active or inactive are those of the source. No stated cut-off is given here; in the data, active = GI50 up to about 1.1 µM and inactive = higher.

On to `CSc1c(C#N)c(O)nc(N)c1C(=O)Nc1ccc(C)cc1`, for which the GI50 in the test on SK-MEL-5 is > 100 µM (inactive); in the test with CAKI-1, 32.2 µM (inactive); in the test with SF-268, > 100 µM (inactive); in the test with RXF 393, > 100 µM (inactive); in the test with NCI-H522, 71.9 µM (inactive); with MCF7, > 100 µM (inactive). For the same molecule, the GI50 in the test on SK-MEL-28, in the test with RPMI-8226, in the test with OVCAR-4, in the test on NCI-H460, with MDA-MB-435 and in the test with U-251 was > 100 µM (inactive) in each case. The GI50 in the test with UACC-62 is > 100 µM (inactive); in the test on EKVX, > 100 µM (inactive); with KM12, > 100 µM (inactive); in the test with Hs-578T it was > 100 µM (inactive); in the test on TK-10, > 100 µM (inactive); in the test with HCT-15, more than 100 µM.
In the case of `CCN(CC)CCNc1ccc(C)c2sc3ccccc3c(=O)c12` [LUCANTHONE HYDROCHLORIDE], the GI50 with SK-MEL-5 is 2.17 µM (inactive); in the test with CAKI-1, 2.85 µM (inactive); in the test on SF-268, 5.81 µM (inactive); with RXF 393, 1.98 µM (inactive); in the test on NCI-H522 it was 2.31 µM (inactive); in the test with MCF7, 2.39 µM (inactive). For the same molecule, the GI50 with SK-MEL-28 is 1.82 µM (inactive); in the test on RPMI-8226, 1.9 µM (inactive); in the test on OVCAR-4, 4.66 µM (inactive); in the test on NCI-H460 it was 1.97 µM (inactive); in the test with MDA-MB-435, 2.04 µM (inactive); in the test with U-251, 2.33 µM (inactive). The GI50 is 1.84 µM (inactive) in the test on UACC-62; 6.82 µM (inactive) with EKVX; 3.09 µM (inactive) in the test with KM12; 2.15 µM (inactive) with Hs-578T; 3.72 µM (inactive) with TK-10; 2.75 µM with HCT-15. Moreover, in the test with ACHN, the GI50 is 3.54 µM (inactive).
With `O=C(O)C1(Cc2ccc3c(c2)CCC3)Cc2ccccc2C1=O` (stereo not drawn), the GI50 in the test on SK-MEL-5 is 79.4 µM (inactive); with SF-268, 63.8 µM (inactive); in the test with RXF 393, > 100 µM (inactive); in the test with MCF7, > 100 µM (inactive); in the test on SK-MEL-28, > 100 µM (inactive); in the test with RPMI-8226, 35.8 µM (inactive). For the same molecule, the GI50 with OVCAR-4 was 55.6 µM (inactive); in the test on NCI-H460, 50.1 µM (inactive); with MDA-MB-435, > 100 µM (inactive); with HOP-92 it was 20.8 µM (inactive); in the test on U-251 it was 38.4 µM (inactive); in the test on UACC-62, 57.9 µM (inactive). For the same molecule, the GI50 with EKVX is 63.2 µM (inactive); with KM12, 39.7 µM (inactive); with Hs-578T, 47.4 µM (inactive); with TK-10, > 100 µM (inactive); in the test with HCT-15, 34.8 µM; in the test on ACHN it was 45.4 µM (inactive).
For `O=C(O)/C=C/C(=O)O` [FUMARIC ACID], the GI50 in the test with SK-MEL-5, in the test with CAKI-1, in the test on SF-268, in the test with NCI-H522, in the test with MCF7 and in the test with SK-MEL-28 was > 100 µM (inactive) each time. For the same molecule, the GI50 in the test with RPMI-8226, with OVCAR-4, in the test on NCI-H460, with MDA-MB-435, with HOP-92 and in the test on U-251 was > 100 µM (inactive) in each case. The GI50 was > 100 µM (inactive) in the test with EKVX; > 100 µM (inactive) in the test on KM12; > 100 µM (inactive) with Hs-578T; > 100 µM (inactive) in the test on TK-10; more than 100 µM with HCT-15; > 100 µM (inactive) in the test with ACHN.
For `Cc1cccc(Nc2cn(CCOc3ccccc3)c(=O)[nH]c2=O)c1`, the GI50 with SK-MEL-5 was 25.8 µM (inactive); in the test with CAKI-1 it was 41.2 µM (inactive); with SF-268 it was 30 µM (inactive); in the test with RXF 393 it was 34.8 µM (inactive); with MCF7, 35.9 µM (inactive); in the test with SK-MEL-28, 29.5 µM (inactive). The GI50 in the test on RPMI-8226 is 34 µM (inactive); with OVCAR-4, 69.5 µM (inactive); in the test on NCI-H460, 32.7 µM (inactive); in the test on MDA-MB-435, 29.5 µM (inactive); in the test with HOP-92 it was 35.6 µM (inactive); with U-251, 33.7 µM (inactive). The GI50 in the test with UACC-62 is 46.6 µM (inactive); with EKVX, 11.3 µM (inactive); in the test with KM12, 31.3 µM (inactive); in the test on Hs-578T, 6.41 µM (inactive); in the test on HCT-15, 49.9 µM; in the test with ACHN it was 33.2 µM (inactive).
As for `CC(=O)N1CC[N+](C)(CCCCN2c3ccccc3Sc3cc(N=[N+]=[N-])ccc32)CC1`, the GI50 in the test on SK-MEL-5 was 62.8 µM (inactive); in the test with CAKI-1, > 100 µM (inactive); in the test with SF-268, > 100 µM (inactive); with RXF 393, > 100 µM (inactive); in the test with NCI-H522, > 100 µM (inactive); with MCF7, > 100 µM (inactive). The GI50 with SK-MEL-28 was > 100 µM (inactive); in the test with RPMI-8226 it was > 100 µM (inactive); in the test on OVCAR-4, 18 µM (inactive); in the test with NCI-H460, > 100 µM (inactive); in the test with MDA-MB-435 it was > 100 µM (inactive); in the test with U-251, > 100 µM (inactive). In addition, the GI50 is > 100 µM (inactive) in the test with UACC-62; > 100 µM (inactive) in the test on EKVX; > 100 µM (inactive) with KM12; 75.9 µM (inactive) in the test with Hs-578T; > 100 µM (inactive) in the test with TK-10; more than 100 µM in the test on HCT-15. The GI50 in the test with ACHN was > 100 µM (inactive).
In the case of `CC(C)[C@H](NC(=O)OCc1ccccc1)C(=O)N[C@H](/C=C/C(=O)OC(C)(C)C)CO`, the GI50 in the test on SK-MEL-5, in the test on CAKI-1, in the test on SF-268, in the test with RXF 393, in the test on NCI-H522 and with MCF7 was > 100 µM (inactive) each time. For the same molecule, the GI50 with SK-MEL-28, with OVCAR-4, with NCI-H460, in the test with MDA-MB-435, in the test on HOP-92 and with UACC-62 was > 100 µM (inactive) throughout. Besides, the GI50 with EKVX was > 100 µM (inactive); in the test with KM12 it was > 100 µM (inactive); in the test with Hs-578T it was > 100 µM (inactive); in the test with TK-10, > 100 µM (inactive); with HCT-15 it was more than 100 µM; with ACHN, > 100 µM (inactive).
As to `COc1ccccc1NC(=S)N/N=C/c1cccc(C)n1`, the GI50 is 4.17 µM (inactive) in the test on SK-MEL-5; 4.75 µM (inactive) with CAKI-1; 6.97 µM (inactive) in the test with SF-268; 0.279 µM (active) in the test with NCI-H522; 3.78 µM (inactive) in the test with MCF7; 8.53 µM (inactive) in the test on SK-MEL-28. In addition, the GI50 in the test with RPMI-8226 was 2.11 µM (inactive); in the test on OVCAR-4, 14.2 µM (inactive); in the test on NCI-H460 it was 2.49 µM (inactive); with MDA-MB-435 it was 5.16 µM (inactive); in the test on HOP-92 it was 8.09 µM (inactive); in the test on U-251, 4.26 µM (inactive). Further, the GI50 is 3.67 µM (inactive) in the test with UACC-62; 4.67 µM (inactive) in the test with EKVX; 6.25 µM (inactive) in the test with KM12; 11.5 µM (inactive) in the test with Hs-578T; 8.99 µM (inactive) with TK-10; 2.31 µM in the test with HCT-15. Also, the GI50 in the test with ACHN is 2.71 µM (inactive).
In the case of `C=C(C)[C@@H]1CC[C@]2(C(=O)O)CC[C@]3(C)[C@H](CC[C@@H]4[C@@]5(C)CC[C@H](C(=O)/C=C/c6ccc(O)cc6)C(C)(C)[C@@H]5CC[C@]43C)[C@@H]12`, the GI50 with SK-MEL-5 is 2.55 µM (inactive); in the test with CAKI-1, 2.64 µM (inactive); in the test with SF-268, 8.11 µM (inactive); in the test on RXF 393, 6.41 µM (inactive); with NCI-H522, 3.41 µM (inactive); in the test with MCF7 it was 3.67 µM (inactive). For the same molecule, the GI50 with SK-MEL-28 is 11.9 µM (inactive); in the test on OVCAR-4, 9.98 µM (inactive); in the test with NCI-H460 it was 2.73 µM (inactive); in the test with MDA-MB-435, 7.67 µM (inactive); in the test with HOP-92 it was 11.9 µM (inactive); with U-251, 2.93 µM (inactive). Further, the GI50 in the test on UACC-62 is 8.89 µM (inactive); in the test with EKVX, 2.47 µM (inactive); in the test with KM12 it was 3.29 µM (inactive); with Hs-578T, 4.75 µM (inactive); in the test with TK-10, 7.82 µM (inactive); with HCT-15, 3.45 µM.
As for `COc1ccc(OC)c(N2C(=O)CSC2c2cc(OC)c(OC)c(OC)c2)c1` (stereo not drawn), the GI50 is 99.8 µM (inactive) in the test with SK-MEL-5; > 100 µM (inactive) with CAKI-1; > 100 µM (inactive) with SF-268; 40.6 µM (inactive) in the test on NCI-H522; 71.1 µM (inactive) in the test on MCF7; > 100 µM (inactive) in the test on SK-MEL-28. The GI50 in the test with RPMI-8226 was > 100 µM (inactive); in the test with OVCAR-4, > 100 µM (inactive); in the test on NCI-H460 it was > 100 µM (inactive); with MDA-MB-435, 29.8 µM (inactive); in the test with HOP-92, > 100 µM (inactive); in the test on U-251, > 100 µM (inactive). Besides, the GI50 was > 100 µM (inactive) in the test on UACC-62; > 100 µM (inactive) in the test on EKVX; 81.7 µM (inactive) in the test with KM12; > 100 µM (inactive) with Hs-578T; > 100 µM (inactive) with TK-10; 98.4 µM with HCT-15. For the same molecule, the GI50 in the test on ACHN was > 100 µM (inactive).
With `O=C(O)CCC(NC(=O)c1ccc(Nc2cnc3ccc(C(F)(F)F)cc3n2)cc1)C(=O)O` (stereo not drawn), the GI50 in the test with SK-MEL-5, in the test on CAKI-1, with SF-268, in the test on RXF 393, with MCF7 and in the test on SK-MEL-28 was > 100 µM (inactive) in each case. The GI50 in the test with RPMI-8226, with OVCAR-4, in the test with NCI-H460, in the test on MDA-MB-435, in the test with HOP-92 and in the test on U-251 was > 100 µM (inactive) in each case. Moreover, the GI50 with UACC-62 was > 100 µM (inactive); with EKVX it was > 100 µM (inactive); in the test with KM12, > 100 µM (inactive); with Hs-578T, 45.9 µM (inactive); in the test on TK-10 it was > 100 µM (inactive); in the test on HCT-15, more than 100 µM. Further, in the test on ACHN, the GI50 is > 100 µM (inactive).
